The source of these data is a melting point compilation (Tetko et al.; mined from patent text by program, amines drawn as free bases though some values may be those of a salt).

In general, melting point refers to the temperature of the solid-liquid transition.

`CC(C)c1cccc(C(C)C)c1Oc1ccc(C#N)c(C#N)c1` had a melting point of 114 to 116 °C.
Next, `CC(C)n1nc(-c2sc(NCCN3CCCCC3)nc2-c2ccccc2)ccc1=O`: 165 to 166 °C.
Compound `CNC(=NC#N)Nc1ccc(Cl)nc1` came in with a melting point of 227 to 228 °C.
As for `CCOC(=O)CC(=O)C=Cc1ccccc1`, the melting point stood at 49 °C.
Next, `CC1(C)C(=O)Nc2cc3[nH]c(C4CCCCC4)nc3cc21`: 315 to 318 °C; `CC(=O)Oc1cc(C(C)(C)C)ccc1C1(OC(C)=O)C(=O)c2ccccc2C1=O`: 119 to 120 °C.
Consider `Cc1nc(N2CCC(Cc3ccc(OC(F)F)cc3)C2=O)sc1C(=O)NCc1ccccc1` (stereo not drawn), for which the melting point is 132 to 133 °C.
Regarding `CC(C)Nc1nc2c(F)c(F)c(Cl)cc2[nH]1`, the melting point is 175 to 178 °C.
Next, `O=C(c1ccc(F)cc1)N1CCC[C@H](c2noc(-c3ccc(F)cn3)n2)C1`: 108 to 110 °C; `O=[N+]([O-])c1ccc(OCC(O)CCCl)cc1` (stereo not drawn): 60 to 63 °C.
Next, `COc1ccc(C(C)c2cc3c(cc2OC)OCO3)cc1` (stereo not drawn): 93 to 94 °C.
The result for `CC1(C)CCC(C)(C)c2cc(N(CCCCO)C(=O)Nc3cccc(C(=O)O)c3)ccc21` reads 124 to 125 °C; that for `CCOC(=O)NNc1nc2ccc(-n3ccnc3)cc2n(OCc2ccccc2)c1=O`, 197 to 199 °C.
Compound `CSc1cn(CC(C)N(O)C(N)=O)c2ccccc12` (stereo not drawn) registered a melting point of 87 to 90 °C.
For the compound `NCCCNC(=O)c1ccc(-c2nn(-c3ccc(C(=O)O)cc3)c3ccccc23)cc1`, the melting point is 285 to 288 °C.
Next, `COc1cc2c(cc1[N+](=O)[O-])CCN(CCCCl)C(=O)C2`: 127 to 128 °C.
Next, `CN(C)c1cccc(-c2ccc3c(C(N)=O)nn(-c4ccc(S(N)(=O)=O)cc4)c3c2)c1`: 237 to 238 °C; `CC(C)n1nc(OS(=O)(=O)C(F)(F)F)ccc1=O`: 45 to 46 °C; `CCOc1cccc2cc(C(=O)c3ccc(Cl)cc3)oc12`: 108 to 110 °C.
The result for `COc1ccc2cc(CCC(C)O)ccc2c1` (stereo not drawn) reads 94 to 95 °C.
`Cc1c(C=Cc2ccccc2)cccc1[N+](=O)[O-]` yielded a melting point of 75.9 °C.
Next, `O=[N+]([O-])C1(Cl)C=CC(S(=O)c2ccc(Br)cc2)=CC1` (stereo not drawn): 138 to 140 °C.
`O=C(O)C1=Cc2cc(C(=O)c3ccccc3)ccc2OC1C(F)(F)F` (stereo not drawn) came in with a melting point of 270 to 271 °C.
`Fc1ccc(Cn2c(NC3CCN(CCNC(=S)NCc4cccnc4)CC3)nc3ccccc32)cc1` gave a melting point of 147 °C.
The compound `CC(=O)c1c(O)cccc1OCC(F)COc1cccc(O)c1C(C)=O` displayed a melting point of 162 to 165 °C.
The result for `Cc1[nH]n(Cc2cc([N+](=O)[O-])ccc2Cl)c2nc(-c3ccncc3)nc(=O)c1-2` reads 290 to 291 °C.
Next, `O=C(O)CN1CC(=O)N(Cc2cccc([N+](=O)[O-])c2)C1=O`: 165 to 166 °C.
The result for `CC(C)(C)OC(=O)c1ccc(NC2CCc3cc4nc(COCc5ccccc5)[nH]c(=O)c4cc32)cc1` (racemic) reads 194 to 195 °C.
Compound `Cc1ccc(-c2ccccc2-c2nn[nH]c2C#N)cc1` displayed a melting point of 170 to 172 °C.
Next, `Cn1c([N+](=O)[O-])cnc1-c1nnc2ccc(N=C(N)CCO)nn12`: 191 to 192 °C; `Cc1cc2oc(=O)c(NC(=O)Nc3ccc(F)cc3F)c(-c3ccccc3C)c2cc1C`: 215 to 217 °C; `NC(=S)N1c2ccccc2C=Cc2ccccc21`: 192 to 194 °C.
In the case of `Cc1ncc(CN2CC=C(/C=C/c3ccccc3)CC2)c(N)n1`, the melting point was 199 to 203 °C.
The result for `CCCCc1cn(CCCC)c(=O)n1Cc1ccc(-c2ccccc2-c2nnn[nH]2)nc1` reads 170 to 171 °C.
Next, `CCS(=O)(=O)ON=C(Cl)c1ccc(F)cc1`: 39 to 41.5 °C; `COc1ccccc1Oc1cccc2c1NC(=O)C2`: 145 to 147 °C; `O=C(O)C1CCC(c2ccc(O)cc2)CC1` (stereo not drawn): 248 to 250 °C.
Next, `COC(=O)/C=C/Oc1ccc(Oc2ccc(F)cc2F)c(NS(C)(=O)=O)c1`: 98.5 to 98.9 °C; `CC(C)[C@H]1COC(=O)N1C(=O)[C@@H](CC(=O)OCc1ccccc1)Cc1ccccc1`: 118 to 120 °C; `CCOC(=O)C(C#N)(CCCN(C)CCc1ccc(OC)c(OC)c1)c1ccc(OC)c(OC)c1` (stereo not drawn): 77 to 78 °C.
For `CCOC(=O)C(=O)c1oc(=O)[nH]c1-c1ccc(Cl)cc1`, the melting point is 152 to 153 °C.
The result for `O=C(O)c1ccc2oc(-c3ccccc3)cc(=O)c2c1` reads 281 to 283 °C.
The result for `COc1ccc(Cl)c(S(=O)(=O)NC(=O)c2cn3cc(C(F)(F)F)cc(Br)c3n2)c1` reads 191 to 192 °C.
Compound `CCC(=O)Nc1c(C(=O)c2cc(Cl)ccc2[N+](=O)[O-])[nH]c2cc(Cl)ccc12` came in with a melting point of 245 to 246 °C.
The result for `CC(CCCCCc1nc(-c2ccc(Cl)cc2)c(-c2ccc(Cl)cc2)o1)c1nnn[nH]1` (racemic) reads 144 °C.
The result for `CN(O)C(=O)c1ccc(CCCCc2ccc(C(=O)N(C)O)cc2)cc1` reads 157 to 159 °C; that for `COc1cc(Cl)c(OC)cc1C`, 90 to 92 °C; that for `ClCCCCCOc1ccc(C2=C(c3ccccc3)CCCc3ccccc32)cc1`, 118 to 120 °C.
As to `CC(C#N)(Cc1c[nH]cn1)c1ccccc1` (stereo not drawn), the melting point was 187 to 189 °C.
In the case of `CN(C)c1cc2c3c(cccc3c1)C(=O)N(CCCCCC(=O)O)C2=O`, the melting point lay within 111 to 114 °C.
Compound `CCCCCCC1CCC(c2ccc(CCCCC)cc2)OC1=O` (stereo not drawn) displayed a melting point of 101 to 102 °C.
`c1ccc(CC2CCN2C(c2ccccc2)c2ccccc2)cc1` (stereo not drawn) returned a melting point of 87.5 °C.
In turn, `O=S(=O)(c1ccc(O)cc1)c1ccc(F)cc1` registered a melting point of 150 to 154 °C.
The result for `COc1ccc(N(C(=O)CNC(=O)Nc2cccc(C)c2)c2ccccc2)cc1` reads 182 °C; that for `COc1cc(NC(=O)c2cc3cc(F)ccc3n2Cc2cccc(F)c2)cnc1N1CCCC1`, 172 to 174 °C.
Consider `Cc1cccc(-c2ncc(NC(=O)OCc3ccccc3)c(=O)n2CC(=O)O)c1`, for which the melting point fell in the range of 183 to 185 °C.
Next, `COc1cc(CC#N)c(CCNC(=O)C(F)(F)F)cc1OC`: 131 °C; `CCN(CC)C(=O)CCc1nc(-c2ccccn2)nc2ccccc12`: 130 °C; `CCCOc1cc2c(cc1C(C)c1ccc(OC)cc1)OCO2` (stereo not drawn): 84 °C.
Next, `Cc1cc(N=C2NCCN2)cc(NS(C)(=O)=O)c1C`: 254 to 255 °C; `CCCCCCCCCCCCCCCCC(C(=O)OC(C)(C)C)C(=O)c1ccc(C(=O)OC(C)C)c(Cl)c1` (stereo not drawn): 44 °C; `CN(C)C(=O)N=NC(=O)N(C)C`: 121 to 122 °C.
The result for `NC(=O)C(c1ccc([N+](=O)[O-])cc1)c1ccccn1` (racemic) reads 155 to 156 °C; that for `O=C1c2ccccc2OCN1CCO`, 59 to 61 °C; that for `CCCOC1C(O)C(CO)OC1n1cnc2c(NC(=O)C(C)C)nc(NC(=O)C(C)C)nc21` (stereo not drawn), 140 to 142 °C.
`COC(=O)c1cc(C(C)=O)c(C(F)(F)F)cc1N`: the melting point lay in the range of 118 to 121 °C.
The result for `CC(Br)C(=O)NS(=O)(=O)c1cccc2c1OC(C)(C)C2` (stereo not drawn) reads 224 to 226 °C.
Next, `Cc1ccc2c(c1)C1CN(Cc3ccccc3)CCC1N2` (stereo not drawn): 179 to 182 °C; `O=[N+]([O-])c1ccc(SCCc2c[nH]cn2)nc1`: 147 to 148 °C; `CCOC(=O)C1=C(N)C(OCC)=NS1=O` (stereo not drawn): 154 to 155 °C.
Next, `NC(=O)c1c(Cl)c(-c2ccccc2)n2c1CN(S(=O)(=O)c1ccccc1F)CC2`: 239 to 240 °C; `Cc1ccc(C(=O)C2(n3ccnc3)CC2)cc1`: 88 to 90 °C.
Compound `CS(=O)(=O)Nc1cccc(Nc2nc(NCCN3CCOCC3)c3nc[nH]c3n2)c1` returned a melting point of 233 to 237 °C.
The result for `COc1ccc(C(=O)N(C(=O)c2ccc(OC)cc2)c2nc3ccc(N(C)C)cc3c(NCc3ccco3)c2C#N)cc1` reads 143 °C; that for `CCOc1nn(Cc2ccc(Cl)cc2Cl)cc1CCCO`, 58 to 59 °C.
`COc1cc(-c2ccc(O)c(C3(C)CCCCC3)c2)cc(CC2SC(N3CCCC3)=NC2=O)c1O` (stereo not drawn) registered a melting point of 204 to 206 °C.
Next, `O=C(c1ccc2n1Cc1ccccc1N(C(=O)c1ccc(-c3cccc4ccccc34)cc1)C2)N(CCO)CCO`: 221 to 224 °C; `COC(=O)/C(C#N)=C/c1cc(OC)c(OCCCl)cc1[N+](=O)[O-]`: 157 to 160 °C; `O=C(NCCO)c1cccc(-c2cccc3nc(Oc4cccc(C(F)(F)F)c4)sc23)c1`: 103 to 104 °C.
Turning to `CC(C)(C)OC(=O)N1[C@H](C=CCCCO)COC1(C)C`, the melting point lay within 73 to 75 °C.
The result for `O=C(NC(=S)NC1Cc2ccccc2C1)c1ccccc1` reads 130 to 135 °C; that for `Fc1c(F)c(-c2c(F)c(F)c(Oc3cccc4ccccc34)c(F)c2F)c(F)c(F)c1Oc1cccc2ccccc12`, 189 to 191 °C.
In turn, `CCC(=O)NCc1cccc2c1C(=O)N(C1CCC(=O)NC1=O)C2=O` (stereo not drawn) displayed a melting point of 219 to 221 °C.
Next, `Cc1cc(-c2cnn3c(C(F)(F)F)cc(-c4ccc(C(F)(F)F)c(F)c4)nc23)cc(C)n1`: 245 °C.
As for `COC(=O)Cc1ccc(CNC(=O)C2Cc3ccccc3N2S(=O)(=O)c2ccc(-c3cccc(C)c3)cc2)cc1` (stereo not drawn), the melting point lay within 66 to 68 °C.
`N#Cc1cc(Cl)c(NC(=O)NC(=O)c2c(F)cccc2F)cc1Cl`: the melting point is 238 to 240 °C.
Next, `NN1C=Nc2ccc(Cl)cc2C1(O)c1ccccc1Cl` (stereo not drawn): 198 °C; `Fc1ccc(F)c(C(Sc2ccc(Cl)cc2)c2ccncc2Cl)c1` (stereo not drawn): 70 to 72 °C.
